# From US20090214466A1 (priority 2006, published 2009)
# Tests used:
# Settings in all cases: human, in vivo
# [1] = test system: migraine symptoms
# [2] = test system: migraine symptoms; remark: listed apart in the source
# [3] = test system: symptoms of post-laminectomy syndrome
substance,measurement,setting,value
botulinum toxin type A [BOTOX® botulinum toxin type A],"frequency, severity, and duration of migraine symptoms",[1],"Reduction in the frequency, severity, and duration of migraine symptoms was reported"
etanercept [ENBREL® etanercept],frequency and severity of migraine symptoms,[2],Reduction in the frequency and severity of migraine symptoms was reported
infliximab [REMICADE® infliximab],symptoms of post-laminectomy syndrome,[3],reduced symptoms
